Test results reported in patent EP2931723B1, “NEW BICYCLIC COMPOUNDS AND THEIR USE AS ANTIBACTERIAL AGENTS AND -LACTAMASE INHIBITORS” (Fedora Pharmaceuticals Inc., priority 2012, dated 2014).

What was measured:
Assay in all cases: MIC, antibacterial and synergistic activity
Assay type in all cases: cell-based
[1] = test system: P. aerug JMI 149; settings: P. aerug JMI 149 (Bla+++D+)
[2] = test system: K. pneumo JMI 2693; settings: K. pneumo JMI 2693 (NDM-1 (Cpase))
Protocol: (§1) In the Tables 10 - 12, compounds herein disclosed were tested in combination with various antibiotics against metallo β-lactamase producing bacteria.

[3] = test system: K. pneumo JMI 2697; settings: K. pneumo JMI 2697 (IMP-4 (Cpase))
Protocol: as §1

[4] = test system: E. coli JMI 2692; settings: E. coli JMI 2692 (NDM-1, TEM-1, CTX-M-15)
Protocol: as §1

[5] = test system: K. pneumo JMI 2674; settings: K. pneumo JMI 2674 (CTX-M15 (ESBL))
Protocol: (§2) In the Tables 10 - 12, compounds herein disclosed were tested in combination with various antibiotics against metallo β-lactamase producing bacteria. Table 3: Synergy of the inhibitor Ex. 1 (4 µg/mL) in combination with antibiotics

[6] = test system: K. pneumo JMI 2699; settings: K. pneumo JMI 2699 (VIM-1, CTX-M3)
Protocol: as §2

[7] = test system: E. coli JMI 10768; settings: E. coli JMI 10768 (CTX-M15 (Weak ESBL))
Protocol: as §2

[8] = test system: E. coli JMI 10767; settings: E. coli JMI 10767 (Wt)
Protocol: as §2

[9] = test system: E. coli JMI 10770; settings: E. coli JMI 10770 (CTX-M15 (Hyper ESBL))
Protocol: as §2

[10] = test system: E. coli JMI 2665
Protocol: as §2

[11] = test system: K. pneumo JMI 4088; settings: K. pneumo JMI 4088 (KPC-3 (Cpase))
Protocol: as §2

[12] = test system: E. coli JMI 2671
Protocol: as §2

[13] = test system: K. pneumo JMI 2673; settings: K. pneumo JMI 2673 (CTX-M14 (ESBL))
Protocol: as §2

[14] = test system: P. aerug JMI 2686; settings: P. aerug JMI 2686 (KPC-2 (Cpase))
Protocol: as §2

[15] = test system: K.pneumo JMI 4109; settings: K.pneumo JMI 4109 (SHV-1, SHV-12)
Protocol: as §2

[16] = test system: A. baumanii JMI 2659; settings: A. baumanii JMI 2659 (Ges-14 (Cpase))
[17] = test system: K. pneumo JMI 2673; settings: K. pneumo JMI 2673 (CTX-M14 (ESBL)); substance alone
[18] = test system: E.coli JMI 4103; settings: E.coli JMI 4103 (KPC-2, Tem-1, CMY-Type)
[19] = test system: K. pneumo JMI 4088; settings: K. pneumo JMI 4088 (KPC-3 (Cpase)); substance alone
[20] = test system: E. coli JMI 4080
[21] = test system: E. coli JMI 10767; settings: E. coli JMI 10767 (Wt); remark: listed apart in the source
[22] = test system: K.pneumo JMI 4109; settings: K.pneumo JMI 4109 (SHV-1, SHV-12); substance alone
[23] = Aztreonam + inhibitor at 4 µg/mL
[24] = Ceftazidime + inhibitor at 4 µg/mL
[25] = Meropenem + inhibitor at 4 µg/mL

O=C(NNC(=O)[C@H]1CC[C@H]2CN1C(=O)N2OS(=O)(=O)O)C1CC1 (stereo in doubt) [Ex. 7, (2R,5S)-N'-(cyclopropylcarbonyl)-7-oxo-6-(sulfooxy)-1,6-diazabicyclo[3.2.1]octane-2-carbohydrazide]
8 µg/mL: MIC ([4]; Escherichia coli, JMI2692, substance alone, read-out: MIC) | MIC ([12]; Escherichia coli, JMI2671, E. coli JMI 2671 (VIM-19 (Cpase)), substance alone) | MIC ([21]; Escherichia coli, JMI10767, substance alone)
0.5 µg/mL: MIC Meropenem + inhibitor [4, 25] | MIC Ceftazidime + inhibitor [6, 24] | MIC Meropenem + inhibitor [6, 25] | MIC Ceftazidime + inhibitor ([12]; E. coli JMI 2671 (VIM-19 (Cpase)), Ceftazidime + inhibitor at 4 µg/mL) | MIC Meropenem + inhibitor ([12]; E. coli JMI 2671 (VIM-19 (Cpase)), Meropenem + inhibitor at 4 µg/mL)
>16 µg/mL: MIC Ceftazidime + inhibitor [1, 24] | MIC Ceftazidime + inhibitor [14, 24] | MIC Ceftazidime + inhibitor [16, 24]
> 16 µg/mL: MIC ([1]; substance alone, read-out: MIC) | MIC ([2]; substance alone) | MIC ([3]; substance alone) | MIC ([16]; Acinetobacter baumannii, JMI2659, substance alone, read-out: MIC) | MIC [17] | MIC [19]
0.125 µg/mL: MIC Meropenem + inhibitor [5, 25] | MIC Aztreonam + inhibitor [11, 23] | MIC Aztreonam + inhibitor [15, 23]
≤0.25 µg/mL: MIC Ceftazidime + inhibitor [4, 24] | MIC Ceftazidime + inhibitor [5, 24] | MIC Ceftazidime + inhibitor [8, 24] | MIC Ceftazidime + inhibitor [9, 24] | MIC Ceftazidime + inhibitor ([10]; E. coli JMI 2665 (CMY-2 (Plasmid Cpase)), Ceftazidime + inhibitor at 4 µg/mL) | MIC Ceftazidime + inhibitor [13, 24] | MIC Ceftazidime + inhibitor [15, 24] | MIC Ceftazidime + inhibitor [18, 24] | MIC Ceftazidime + inhibitor ([20]; E. coli JMI 4080 (Tem-10), Ceftazidime + inhibitor at 4 µg/mL)
0.25 µg/mL: MIC Meropenem + inhibitor [2, 25]
≤0.062 µg/mL: MIC Aztreonam + inhibitor [3, 23] | MIC Aztreonam + inhibitor [4, 23] | MIC Aztreonam + inhibitor [5, 23] | MIC Aztreonam + inhibitor [6, 23] | MIC Aztreonam + inhibitor [7, 23] | MIC Aztreonam + inhibitor [8, 23] | MIC Aztreonam + inhibitor [9, 23] | MIC Aztreonam + inhibitor ([10]; E. coli JMI 2665 (CMY-2 (Plasmid Cpase)), Aztreonam + inhibitor at 4 µg/mL) | MIC Aztreonam + inhibitor ([12]; E. coli JMI 2671 (VIM-19 (Cpase)), Aztreonam + inhibitor at 4 µg/mL) | MIC Aztreonam + inhibitor [13, 23] | MIC Aztreonam + inhibitor [18, 23] | MIC Aztreonam + inhibitor ([20]; E. coli JMI 4080 (Tem-10), Aztreonam + inhibitor at 4 µg/mL)
>2 µg/mL: MIC Meropenem + inhibitor [1, 25] | MIC Meropenem + inhibitor [14, 25] | MIC Meropenem + inhibitor [16, 25]
≤0.0312 µg/mL: MIC Meropenem + inhibitor [9, 25] | MIC Meropenem + inhibitor [13, 25] | MIC Meropenem + inhibitor [15, 25] | MIC Meropenem + inhibitor [18, 25] | MIC Meropenem + inhibitor ([20]; E. coli JMI 4080 (Tem-10), Meropenem + inhibitor at 4 µg/mL) | MIC Meropenem + inhibitor [21, 25]
4 µg/mL: MIC ([20]; Escherichia coli, JMI4080, E. coli JMI 4080 (Tem-10), substance alone)
16 µg/mL: MIC Ceftazidime + inhibitor [3, 24] | MIC ([6]; substance alone, read-out: MIC) | MIC ([7]; Escherichia coli, JMI10768, substance alone)
1 µg/mL: MIC Aztreonam + inhibitor [2, 23] | MIC Ceftazidime + inhibitor [11, 24] | MIC Meropenem + inhibitor [11, 25]
>4 µg/mL: MIC Aztreonam + inhibitor [1, 23] | MIC Aztreonam + inhibitor [14, 23] | MIC Aztreonam + inhibitor [16, 23]
2 µg/mL: MIC Ceftazidime + inhibitor [2, 24] | MIC Meropenem + inhibitor [3, 25] | MIC Ceftazidime + inhibitor [7, 24] | MIC ([10]; Escherichia coli, JMI2665) | MIC ([18]; Escherichia coli, JMI4103, substance alone) | MIC [22]
